Here are results for 92 molecules from ChEMBL document CHEMBL3044873, “Aryl N, N-Dimethylcarbamates, Synergists for Organophosphorus Insecticides against Organophos-phorusresistant Rice Stem Borers” (J Pestic Sci, 1990).

The assay relates to Chilo suppressalis. Nature of the assay: Potentiation of fenitrothion-induced insecticidal activity against OP-resistant Chilo suppressalis Hata-f (rice stem borer) assessed as synergistic ratio at 1:10 fenitrothion to compound ratio relative to fenitrothion alone. Format: functional.
In the case of `CN(C)C(=S)Oc1ccc([N+](=O)[O-])cc1`, the “fold change (FC)” value is listed as 1.6.

Turning to `CCN(CC)C(=O)Oc1ccc(SC)cc1` [4-(METHYLTHIO)PHENYL DIETHYLCARBAMATE], the “fold change (FC)” value stood at 2.9.

On to `CN(C)C(=O)OCc1ccccc1` [BENZYL DIMETHYLCARBAMATE], for which the “fold change (FC)” value worked out at 0.9.

`CNC(=O)Oc1ccc(C#N)cc1` [4-CYANOPHENYL METHYLCARBAMATE]: the “fold change (FC)” value came out at 1.1.

For `CN(C)C(=S)Oc1ccc(C#N)cc1`, the “fold change (FC)” value is listed as 2.1.

Consider `CNC(=O)Oc1ccc(SC)cc1` [4-(METHYLTHIO)PHENYL METHYLCARBAMATE], for which the “fold change (FC)” value is 1.1.

For `CN(C)C(=O)Oc1cccc2ccccc12`, the “fold change (FC)” value stood at 13.

For `CCN(CC)C(=O)Oc1ccc([N+](=O)[O-])cc1` [4-NITROPHENYL DIETHYLCARBAMATE], the “fold change (FC)” value worked out at 3.3.

As to `Cc1cc(C)cc(OC(=O)N(C)C)c1` [3,5-DIMETHYLPHENYL DIMETHYLCARBAMATE], the “fold change (FC)” value worked out at 5.8.

`COc1nc(C)cc(OC(=O)N(C)C)n1`: the “fold change (FC)” value turned out to be 13.

Take `Cc1ccc([N+](=O)[O-])c(OC(=O)N(C)C)c1`: the “fold change (FC)” value is listed as 3.1.

In the case of `Cc1ccc(OC(=O)N(C)C)c([N+](=O)[O-])c1`, the “fold change (FC)” value is on record as 5.8.

For the molecule `CNC(=O)Oc1ccc(SC)c(C)c1`, the “fold change (FC)” value worked out at 0.8.

On to `CN(C)CCOC(=O)N(C)C` [2-(DIMETHYLAMINO)ETHYL DIMETHYLCARBAMATE], for which the “fold change (FC)” value amounted to 1.

Consider `CN(C)C(=O)Oc1ccc(Cl)cc1` [4-CHLOROPHENYL DIMETHYLCARBAMATE], for which the “fold change (FC)” value was 10.

Turning to `CN(C)C(=O)Oc1cccc(C(C)(C)C)c1`, the “fold change (FC)” value is on record as 3.5.

As for `CCN(CC)C(=O)Oc1ccc(SC)c(C)c1`, the “fold change (FC)” value is 4.6.

As for `CSc1ccc(OC(=O)N(C)C)cc1` [4-(METHYLTHIO)PHENYL DIMETHYLCARBAMATE], the “fold change (FC)” value worked out at 16.

Take `CN(C)C(=O)Oc1cccc(Cl)c1` [3-CHLOROPHENYL DIMETHYLCARBAMATE]: the “fold change (FC)” value is recorded as 11.

On to `Cc1ccccc1OC(=O)N(C)C` [O-TOLYL DIMETHYLCARBAMATE], for which the “fold change (FC)” value is 4.3.

As for `Cc1cc(OC(=O)N(C)C)cc(C)c1Cl`, the “fold change (FC)” value is listed as 11.

`CN(C)C(=O)Oc1ccccn1`: the “fold change (FC)” value turned out to be 11.

Take `COC(=O)c1ccc(OC(=O)N(C)C)cc1` [METHYL 4-(DIMETHYLCARBAMOYLOXY)BENZOATE]: the “fold change (FC)” value was found to be 6.3.

For `COc1ccc(OC(=O)N(C)C)cc1` [4-METHOXYPHENYL DIMETHYLCARBAMATE], the “fold change (FC)” value came to 3.

As to `Cc1cc(OC(=O)N(C)C)nc(C)n1`, the “fold change (FC)” value is on record as 11.

Turning to `CN(C)C(=O)OCc1ccc2c(c1)OCO2`, the “fold change (FC)” value stood at 0.9.

As to `CNC(=O)Oc1ccc([N+](=O)[O-])c(C)c1`, the “fold change (FC)” value stood at 1.1.

With `CN(C)C(=O)Oc1ccccc1Cl` [2-CHLOROPHENYL DIMETHYLCARBAMATE], the “fold change (FC)” value turned out to be 5.1.

On to `Cc1cccc(OC(=O)N(C)C)c1` [M-TOLYL DIMETHYLCARBAMATE], for which the “fold change (FC)” value came out at 9.2.

`Cc1cc(OC(=O)N(C)C)nc(C(C)C)n1`: the “fold change (FC)” value is recorded as 15.

`CN(C)C(=O)Oc1ccc(-c2ccccc2)cc1`: the “fold change (FC)” value is reported as 2.

Turning to `Cc1cc(OC(=O)N(C)C)nc(-c2ccccc2)n1`, the “fold change (FC)” value is listed as 13.

Regarding `CCNC(=O)Oc1ccc(SC)cc1` [4-(METHYLTHIO)PHENYL ETHYLCARBAMATE], the “fold change (FC)” value is listed as 1.4.

In the case of `Cc1ccc(OC(=O)N(C)C)cc1C` [3,4-DIMETHYLPHENYL DIMETHYLCARBAMATE], the “fold change (FC)” value was 9.5.

In the case of `CSc1ccc(OC(=O)Nc2ccccc2)cc1C`, the “fold change (FC)” value was found to be 0.7.

Regarding `CN(C)C(=O)Oc1ccc([N+](=O)[O-])cc1Cl`, the “fold change (FC)” value turned out to be 2.4.

Turning to `CC(C)c1cccc(OC(=O)N(C)C)c1` [3-ISOPROPYLPHENYL DIMETHYLCARBAMATE], the “fold change (FC)” value stood at 4.3.

As to `CN(C)C(=O)Oc1cccc([N+](=O)[O-])c1` [3-NITROPHENYL DIMETHYLCARBAMATE], the “fold change (FC)” value is given as 8.2.

With `CN(C)C(=O)Oc1nc(Cl)c(Cl)cc1Cl`, the “fold change (FC)” value is given as 4.1.

Regarding `CN(C)C(=O)Oc1ccccc1[N+](=O)[O-]` [2-NITROPHENYL DIMETHYLCARBAMATE], the “fold change (FC)” value was 5.8.

Regarding `CCN(CC)C(=O)Oc1ccc([N+](=O)[O-])c(C)c1`, the “fold change (FC)” value is recorded as 2.3.

With `CSc1nc(C)cc(OC(=O)N(C)C)n1`, the “fold change (FC)” value is listed as 14.

For `N#Cc1ccc(OC(=O)Nc2ccccc2)cc1` [4-CYANOPHENYL PHENYLCARBAMATE], the “fold change (FC)” value is reported as 0.8.

On to `O=C(Nc1ccccc1)Oc1ccc([N+](=O)[O-])cc1` [4-NITROPHENYL PHENYLCARBAMATE], for which the “fold change (FC)” value is 0.9.

`CCNC(=O)Oc1ccc([N+](=O)[O-])c(C)c1`: the “fold change (FC)” value came to 0.7.

For `CCN(CC)C(=O)Oc1ccc(C#N)cc1` [4-CYANOPHENYL DIETHYLCARBAMATE], the “fold change (FC)” value was 1.7.

`CCSCCOC(=O)N(C)C` [2-(ETHYLTHIO)ETHYL DIMETHYLCARBAMATE]: the “fold change (FC)” value was determined as 1.

On to `O=C(Nc1ccccc1)Oc1cccc2ccccc12`, for which the “fold change (FC)” value was found to be 1.

Regarding `Cc1cc(OC(=S)N(C)C)ccc1Cl`, the “fold change (FC)” value was determined as 4.1.

Regarding `CN(C)C(=O)Sc1ccc(Cl)cc1`, the “fold change (FC)” value was 1.9.

`CNC(=O)Oc1ccc([N+](=O)[O-])cc1` [4-NITROPHENYL METHYLCARBAMATE]: the “fold change (FC)” value came out at 0.9.

On to `CN(C)C(=O)Oc1cc(Cl)c(Cl)cc1Cl` [2,4,5-TRICHLOROPHENYL DIMETHYLCARBAMATE], for which the “fold change (FC)” value was found to be 5.8.

On to `CN(C)C(=O)Oc1ccc([N+](=O)[O-])cc1[N+](=O)[O-]` [2,4-DINITROPHENYL DIMETHYLCARBAMATE], for which the “fold change (FC)” value worked out at 0.8.

Consider `CCN(CC)C(=O)Oc1cc(-c2ccccc2)on1`, for which the “fold change (FC)” value stood at 4.1.

On to `CCN(CC)C(=O)Oc1ccc(Cl)c(C)c1`, for which the “fold change (FC)” value was determined as 1.8.

As to `CCN(CC)C(=O)Oc1cc(C)nc(N(C)C)n1`, the “fold change (FC)” value came to 13.

With `Cc1cc(OC(=O)Nc2ccccc2)ccc1[N+](=O)[O-]`, the “fold change (FC)” value is 0.9.

Regarding `Cc1cc(OC(=O)N(C)C)nc(Nc2ccccc2)n1`, the “fold change (FC)” value stood at 2.8.

With `CCNC(=O)Oc1cccc2ccccc12`, the “fold change (FC)” value was 1.

Take `Cc1nc(N(C)C)nc(OC(=O)N(C)C)c1C` [PIRIMICARB]: the “fold change (FC)” value stood at 6.3.

As for `CCNC(=O)Oc1ccc(C#N)cc1` [4-CYANOPHENYL ETHYLCARBAMATE], the “fold change (FC)” value is given as 1.5.

As to `Cc1ccc(OC(=O)N(C)C)cc1` [P-TOLYL DIMETHYLCARBAMATE], the “fold change (FC)” value was found to be 8.1.

For the molecule `CNC(=O)Oc1ccc(Cl)c(C)c1`, the “fold change (FC)” value stood at 1.1.

In the case of `CN(C)C(=O)SCc1ccccc1` [S-BENZYL DIMETHYLCARBAMOTHIOATE], the “fold change (FC)” value came out at 1.

Regarding `CCN(CC)C(=O)Oc1cc(C)nc(N(CC)CC)n1`, the “fold change (FC)” value amounted to 8.7.

For the molecule `CCC(C)c1ccccc1OC(=O)N(C)C` (configuration not stated), the “fold change (FC)” value is recorded as 1.8.

Consider `CN(C)C(=O)Oc1ccc([N+](=O)[O-])cc1` [4-NITROPHENYL DIMETHYLCARBAMATE], for which the “fold change (FC)” value worked out at 10.

Consider `CC(C)OC(=O)c1ccc(OC(=O)N(C)C)cc1` [ISOPROPYL 4-(DIMETHYLCARBAMOYLOXY)BENZOATE], for which the “fold change (FC)” value is 0.9.

With `CCNC(=O)Oc1ccc(SC)c(C)c1`, the “fold change (FC)” value was determined as 0.6.

In the case of `CCNC(=O)Oc1ccc(Cl)c(C)c1`, the “fold change (FC)” value is on record as 1.2.

In the case of `CCN(CC)C(=O)Oc1cccc2ccccc12`, the “fold change (FC)” value was found to be 2.5.

As to `CN(C)C(=O)Oc1ccc2ccccc2n1`, the “fold change (FC)” value stood at 15.

With `CN(C)C(=O)Oc1ccc([N+](=O)[O-])c(Cl)c1`, the “fold change (FC)” value is 6.3.

For `Cc1cc(OC(=O)N(C)C)ccc1Cl`, the “fold change (FC)” value is recorded as 12.

As for `CN(C)C(=O)OCc1ccc([N+](=O)[O-])cc1` [4-NITROBENZYL DIMETHYLCARBAMATE], the “fold change (FC)” value was 1.

In the case of `CCNC(=O)Oc1ccc([N+](=O)[O-])cc1` [4-NITROPHENYL ETHYLCARBAMATE], the “fold change (FC)” value is on record as 1.2.

Regarding `Cc1cc(OC(=S)N(C)C)ccc1[N+](=O)[O-]`, the “fold change (FC)” value is recorded as 1.3.

As to `CSc1ccc(OC(=S)N(C)C)cc1`, the “fold change (FC)” value was determined as 2.3.

With `CCOC(=O)Nc1ccccc1` [ETHYL PHENYLCARBAMATE], the “fold change (FC)” value came to 0.8.

In the case of `Cc1cc(OC(=O)Nc2ccccc2)ccc1Cl`, the “fold change (FC)” value came to 0.8.

`CCOC(=O)/C=C(\C)OC(=O)N(C)C`: the “fold change (FC)” value was found to be 1.

With `CN(C)C(=O)Oc1ccc([N+](=O)[O-])c(C(F)(F)F)c1`, the “fold change (FC)” value came out at 8.

`CSc1ccc(OC(=S)N(C)C)cc1C`: the “fold change (FC)” value was found to be 4.9.

On to `CN(C)C(=O)Oc1ccc(C#N)cc1` [4-CYANOPHENYL DIMETHYLCARBAMATE], for which the “fold change (FC)” value was determined as 14.

Turning to `CN(C)C(=O)Sc1ccc([N+](=O)[O-])cc1`, the “fold change (FC)” value was 1.9.

As for `CN(C)C(=O)Oc1ccc(=O)n(-c2ccccc2)n1`, the “fold change (FC)” value turned out to be 3.1.

As for `CN(C)C(=O)Oc1ccccc1` [PHENYL DIMETHYLCARBAMATE], the “fold change (FC)” value is 5.8.

As to `CN(C)C(=O)Oc1cccc2cccnc12`, the “fold change (FC)” value was found to be 4.6.

As for `CN(C)C(=O)Oc1ccc2ccccc2c1` [NAPHTHALEN-2-YL DIMETHYLCARBAMATE], the “fold change (FC)” value is recorded as 16.

As for `Cc1c(OC(=O)N(C)C)cc([N+](=O)[O-])cc1[N+](=O)[O-]`, the “fold change (FC)” value is 1.1.

Turning to `CC(=O)c1ccc(OC(=O)N(C)C)cc1` [4-ACETYLPHENYL DIMETHYLCARBAMATE], the “fold change (FC)” value came out at 6.9.

As for `CN(C)C(=O)Oc1c(Cl)cc(Cl)c2ccccc12`, the “fold change (FC)” value is 1.3.
